Experimental findings from patent US12180187B2, “1-phenyl-5-azinylpyrazolyl-3-oxyalkyl acids and their use for controlling unwanted plant growth” (BAYER AKTIENGESELLSCHAFT, priority 2019, dated 2024) are described below.

For assay [1], the system named is AMARE. The assay is described as follows: Post-emergence action against AMARE, 1.28 kg/ha. Type of assay: in vivo, Amaranthus retroflexus. As to conditions: dosage 1280 g/ha, visual rating about 3 weeks after treatment vs untreated controls (100% = plants died). A digest of the protocol:
(§1)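 Foliar application at the one-leaf stage: compound as WP or EC in water with 0.5% additive, sprayed at 600 L/ha. Plants are kept about 3 weeks in the greenhouse, then % herbicidal action is estimated visually (100% = death).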

Assay [2] has as its system POAAN. The assay is described as follows: Pre-emergence action against POAAN, 1280 g/ha. Type of assay: in vivo, Poa annua. As to conditions: visual scoring after about 3 weeks vs untreated controls, 100% = plants have died, 0% = like control plants. The procedure, abridged: (§2)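 Mono- and dicot weed seeds sown in sandy loam were treated on the covering soil surface with WP or EC formulations plus 0.5% additive at 600 L water/ha. Pots stayed in a greenhouse; damage was scored visually after ~3 weeks as percent versus untreated controls (100% = dead).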

The next assay deals with KCHSC. The experiment in a line: Post-emergence action against KCHSC, 1.28 kg/ha. Type of assay: in vivo, Bassia scoparia. As to conditions: dosage 1280 g/ha, visual rating about 3 weeks after treatment vs untreated controls (100% = plants died). The protocol:
• a) Seeds of mono- and dicotyledonous weed plants are placed in plastic pots in sandy loam soil (twin sowing with one species each of mono- or dicotyledonous weed plants per pot), covered with soil and cultivated in a greenhouse under controlled growth conditions. 2 to 3 weeks after sowing, the test plants are treated at the one-leaf stage. The compounds of the invention, formulated in the form of wettable powders (WP) or as emulsion concentrates (EC), are applied to the green parts of the plants as aqueous suspension or emulsion with addition of 0.5% additive at a water application rate equivalent to 600 litres per hectare. After the test plants have been kept in the greenhouse under optimum growth conditions for about 3 weeks, the activity of the preparations is rated visually in comparison to untreated controls. For example, 100% activity=the plants have died, 0% activity=like control plants. As shown by the results, compounds of the general formula (I) of the invention, in post-emergence treatment, have very good herbicidal efficacy (90% to 100% herbicidal action) against harmful plants such as Abutilon theophrasti, Digitaria sanguinalis, Echinochloa crus-galli, Matricaria inodora, Poa annua, at an application rate of 1.28 kg of active substance per hectare.

Assay [3] has as its system VERPE. The assay is described as follows: Post-emergence action against VERPE, 1.28 kg/ha. Type of assay: in vivo, Veronica persica. As to conditions: dosage 1280 g/ha, visual rating about 3 weeks after treatment vs untreated controls (100% = plants died). The procedure, abridged:
as §1

The subject of the next assay is STEME. The experiment in a line: Pre-emergence action against STEME, 1280 g/ha. Type of assay: in vivo, Stellaria media. As to conditions: scored visually after about 3 weeks vs untreated controls (100% = plants have died). The procedure, abridged: as §2
The test system of the next assay is ABUTH. The assay is described as follows: Post-emergence action against ABUTH, 1.28 kg/ha. Type of assay: in vivo, Abutilon theophrasti. The note with it: dosage 1280 g/ha, visual rating about 3 weeks after treatment vs untreated controls (100% = plants died). The procedure, abridged:
as §1

The subject of assay [4] is AMARE. The assay is described as follows: Pre-emergence action against AMARE, 1280 g/ha. Type of assay: in vivo, Amaranthus retroflexus. As to conditions: scored visually after about 3 weeks vs untreated controls (100% = plants have died). A digest of the protocol:
as §2

Assay [5] deals with VERPE. The experiment in a line: Pre-emergence action against VERPE, 1280 g/ha. Type of assay: in vivo, Veronica persica. The note with it: scored visually after about 3 weeks vs untreated controls (100% = plants have died). A digest of the protocol: as §2
The next assay has as its system ECHCG. The assay is described as follows: Pre-emergence action against ECHCG, 1280 g/ha. Type of assay: in vivo, Echinochloa crus-galli. The note with it: visual scoring after about 3 weeks vs untreated controls, 100% = plants have died, 0% = like control plants. The procedure, abridged:
as §2

Assay [6] relates to MATIN. The experiment in a line: Post-emergence action against MATIN, 1.28 kg/ha. Type of assay: in vivo, Tripleurospermum inodorum (Matricaria inodora). As to conditions: dosage 1280 g/ha, visual rating about 3 weeks after treatment vs untreated controls (100% = plants died). A digest of the protocol: as §1
Assay [7] has as its system ALOMY. The assay is described as follows: Pre-emergence action against ALOMY, 1280 g/ha. Type of assay: in vivo, Alopecurus myosuroides. The note with it: visual scoring after about 3 weeks vs untreated controls, 100% = plants have died, 0% = like control plants. The procedure, abridged: as §2
In assay [8] the test system is ALOMY. The assay is described as follows: Post-emergence action against ALOMY, 1.28 kg/ha. As to conditions: dosage 1280 g/ha, visual rating about 3 weeks after treatment vs untreated controls. Type of assay: in vivo, Alopecurus myosuroides. A digest of the protocol:
as §1

In assay [9] the test system is POAAN. The experiment in a line: Post-emergence action against POAAN, 1.28 kg/ha. Type of assay: in vivo, Poa annua. As to conditions: dosage 1280 g/ha, visual rating about 3 weeks after treatment vs untreated controls. A digest of the protocol: as §1
For the next assay, the system named is SETVI. The experiment in a line: Pre-emergence action against SETVI, 1280 g/ha. Type of assay: in vivo, Setaria viridis. As to conditions: visual scoring after about 3 weeks vs untreated controls, 100% = plants have died, 0% = like control plants. A digest of the protocol:
as §2

Assay [10] has as its system DIGSA. The assay is described as follows: Pre-emergence action against DIGSA, 1280 g/ha. Type of assay: in vivo, Digitaria sanguinalis. The note with it: visual scoring after about 3 weeks vs untreated controls, 100% = plants have died, 0% = like control plants. The procedure, abridged: as §2
The test system of assay [11] is MATIN. The experiment in a line: Pre-emergence action against MATIN, 1280 g/ha. As to conditions: scored visually after about 3 weeks vs untreated controls (100% = plants have died). Type of assay: in vivo, Tripleurospermum inodorum (Matricaria inodora). A digest of the protocol: as §2
In another assay the test system is LOLRI. The experiment in a line: Pre-emergence action against LOLRI, 1280 g/ha. Type of assay: in vivo, Lolium rigidum. The note with it: visual scoring after about 3 weeks vs untreated controls, 100% = plants have died, 0% = like control plants. The procedure, abridged: as §2
The subject of assay [12] is DIGSA. The experiment in a line: Post-emergence action against DIGSA, 1.28 kg/ha. The note with it: dosage 1280 g/ha, visual rating about 3 weeks after treatment vs untreated controls. Type of assay: in vivo, Digitaria sanguinalis. A digest of the protocol:
as §1

As for `N#CCCNC(=O)COc1nn(-c2ccc(F)cc2F)c(-c2ccc(F)nc2)c1Br` [Example X-029], the “Post-emergence action against AMARE” value in the assay with AMARE [1] is 90%. Besides, the “Pre-emergence action against POAAN” value in the assay on POAAN [2] was 100%. For the same compound, the “Post-emergence action against KCHSC” value in the assay on KCHSC stood at 90%. Also, the “Post-emergence action against VERPE” value in the assay with VERPE [3] was 100%. Besides, the “Pre-emergence action against STEME” value in the assay with STEME is 90%. In addition, the “Post-emergence action against ABUTH” value in the assay with ABUTH was determined as 90%. Further, the “Pre-emergence action against AMARE” value with AMARE [4] turned out to be 100%.

As for `N#CCCNC(=O)COc1nn(-c2ccccc2F)c(-c2ccc(F)nc2)c1Br` [Example X-032], the “Pre-emergence action against VERPE” value with VERPE [5] turned out to be 100%. Also, the “Pre-emergence action against ECHCG” value in the assay on ECHCG turned out to be 100%. Further, in the assay with MATIN [6], the “Post-emergence action against MATIN” value came to 90%. For the same compound, the “Pre-emergence action against POAAN” value with POAAN [2] was determined as 100%. For the same compound, in the assay on ALOMY [7], the “Pre-emergence action against ALOMY” value was 100%. Besides, the “Post-emergence action against ALOMY” value in the assay with ALOMY [8] is reported as 100%. In addition, the “Post-emergence action against POAAN” value in the assay on POAAN [9] amounted to 100%. Further, the “Pre-emergence action against SETVI” value in the assay with SETVI worked out at 100%. Further, in the assay with KCHSC, the “Post-emergence action against KCHSC” value is 90%. Besides, the “Pre-emergence action against DIGSA” value in the assay on DIGSA [10] is reported as 100%. Moreover, the “Post-emergence action against VERPE” value with VERPE [3] amounted to 100%. In the assay with STEME, the “Pre-emergence action against STEME” value turned out to be 100%. In the assay with MATIN [11], the “Pre-emergence action against MATIN” value came to 100%. Further, the “Pre-emergence action against LOLRI” value in the assay with LOLRI is reported as 100%. Also, in the assay on AMARE [4], the “Pre-emergence action against AMARE” value was 100%.

With `CONC(=O)COc1nn(-c2ccc(F)cc2F)c(-c2ccc(F)cn2)c1Br` [II-004], the “Pre-emergence action against POAAN” value with POAAN [2] stood at 100%. Further, in the assay on ALOMY [7], the “Pre-emergence action against ALOMY” value amounted to 100%. Besides, the “Post-emergence action against ALOMY” value in the assay on ALOMY [8] was determined as 100%. Moreover, the “Post-emergence action against KCHSC” value in the assay on KCHSC was 90%. In addition, the “Pre-emergence action against DIGSA” value in the assay on DIGSA [10] was 100%. The “Post-emergence action against VERPE” value in the assay on VERPE [3] is reported as 100%. Further, the “Post-emergence action against DIGSA” value with DIGSA [12] is recorded as 100%. The “Pre-emergence action against LOLRI” value in the assay with LOLRI was found to be 90%.
